What was measured:
[1] = system: pulmonary vascular endothelial cells of irradiated lung; experiment: Pulmonary fibrosis inhibition test in experimental animal model (trichrome staining of collagen); type: in vivo, C57BL/6 mouse; details: 10 mg/kg intraperitoneally one hour before 90 Gy lung irradiation; inner wall of the aorta of lung tissue; compared to irradiation group (IR)
Description: The tissue of a mouse was fixed with 10% neutral formalin for one day, and a paraffin section was made. In order to remove paraffin around the tissue, the tissue was allowed to react with a xylene solution and 95%, 90%, and 70% ethanol solutions in sequential order for 5 minutes each. For the antigen activation of the tissue, the tissue was immersed in a 0.1 M citric acid solution (pH 6.0) and then boiled for 20 minutes. Subsequently, the tissue was allowed to react with a Bouin's solution for 1 minute, Weigert's hematoxylin for 10 minutes, phoshotunstic/phosphomolydic acid for 10 minutes, aniline blue for 5 minutes, and 1% acetic acid for 1 minute in sequential order. Thereafter, a dehydration process was performed, and then the tissue was covered with a cover glass and observed under a microscope (Carl Zeiss Vision). In order to observe whether a phenomenon of pulmonary fibrosis of vascular endothelial cells is shown as the symptom of pulmonary fibrosis occurred after radiotherapy, the site of the lung of a C57BL/6 mouse was topically irradiated with an intensity of 90 Gy. After excising the lung from the mouse, the cross-section of the aorta of the lung tissue was stained by a trichrome staining method in order to identify collagen which is a protein shown upon fibrosis of the pulmonary vascular endothelial cells. […]

[2] = system: vascular wall in the lung tissue of a mouse animal model irradiated with 90 Gy; experiment: Inhibition test on in vivo vascular damage caused by radiation (vascular wall thickness, H&E staining); details: 10 mg/kg intraperitoneally one hour before 90 Gy chest irradiation; two weeks after irradiation; compared to non-treatment group (IR)
Description: The tissue of a mouse was fixed with 10% neutral formalin for one day, and a paraffin section was made. In order to remove the paraffin around the tissue, the tissue was allowed to react with a xylene solution and 95%, 90%, and 70% ethanol solutions in sequential order for 5 minutes each, and then immersed in a hematoxylin solution for 1 minute to stain the nuclei and then washed under running water for 10 minutes. Thereafter, the cytoplasm was stained by immersing the tissue in an eosin solution for 30 seconds. Thereafter, the tissue was immersed in 50%, 70%, 90%, and 95% ethanol solutions, and a xylene solution in sequential order, followed by dropping one drop of a mounting solution. Then, the tissue was covered with a cover slide and observed under a microscope (Carl Zeiss Vision). The lung tissue of a mouse animal model, in which the chest of the mouse was irradiated in a size of 3 mm with an intensity of 90 Gy, was fixed with 10% formalin, and a paraffin section was made. Thereafter, the tissue was stained with hematoxylin and eosin. Upon observing the tissue with this staining method, the cell nucleus is observed in blue and the cytoplasm in pink. One hour before irradiating the mouse animal model, 10 mg/kg of Dacomitinib was administered intraperitoneally. […]

[3] = system: lung tissue of a mouse animal model irradiated with 90 Gy; experiment: Inhibition test on tissue damage caused by radiation (H&E staining of lung tissue); type: in vivo; details: 10 mg/kg intraperitoneally one hour before 90 Gy chest irradiation; two weeks after irradiation; compared to non-treatment group (IR)
Description: The tissue of a mouse was fixed with 10% neutral formalin for one day, and a paraffin section was made. In order to remove the paraffin around the tissue, the tissue was allowed to react with a xylene solution and 95%, 90%, and 70% ethanol solutions in sequential order for 5 minutes each, and then immersed in a hematoxylin solution for 1 minute to stain the nuclei and then washed under running water for 10 minutes. Thereafter, the cytoplasm was stained by immersing the tissue in an eosin solution for 30 seconds. Thereafter, the tissue was immersed in 50%, 70%, 90%, and 95% ethanol solutions, and a xylene solution in sequential order, followed by dropping one drop of a mounting solution. Then, the tissue was covered with a cover slide and observed under a microscope (Carl Zeiss Vision). The lung tissue of a mouse animal model, in which the chest of the mouse was irradiated in a size of 3 mm with an intensity of 90 Gy, was fixed with 10% formalin, and a paraffin section was made. Thereafter, tissue inflammatory response and fibrosis were identified by using a hematoxylin and eosin staining method. Upon observing the tissue with this staining method, the cell nucleus is observed in blue and the cytoplasm in pink. One hour before irradiating the mouse animal model, 10 mg/kg of Dacomitinib was administered intraperitoneally. […]

[4] = system: lung tissue of bleomycin-injected mouse; experiment: Inhibition test on tissue damage caused by bleomycin (bleomycin-induced pulmonary fibrosis model); type: in vivo; details: 10 mg/kg intraperitoneally one hour before 1.25 U/kg bleomycin into the airway; three weeks after injection; compared to non-treatment group
Description: The tissue of a mouse was fixed with 10% neutral formalin for one day, and a paraffin section was made. In order to remove the paraffin around the tissue, the tissue was allowed to react with a xylene solution and 95%, 90%, and 70% ethanol solutions in sequential order for 5 minutes each, and then immersed in a hematoxylin solution for 1 minute to stain the nuclei and then washed under running water for 10 minutes. Thereafter, the cytoplasm was stained by immersing the tissue in an eosin solution for 30 seconds. Thereafter, the tissue was immersed in 50%, 70%, 90%, and 95% ethanol solutions, and a xylene solution in sequential order, followed by dropping one drop of a mounting solution. Then, the tissue was covered with a cover slide and observed under a microscope (Carl Zeiss Vision). The tissue of a mouse was fixed with 10% neutral formalin for one day, and a paraffin section was made. In order to remove paraffin around the tissue, the tissue was allowed to react with a xylene solution and 95%, 90%, and 70% ethanol solutions in sequential order for 5 minutes each. For the antigen activation of the tissue, the tissue was immersed in a 0.1 M citric acid solution (pH 6.0) and then boiled for 20 minutes. […]

[5] = system: γH2AX in irradiated lung tissue; experiment: Inhibition test on DNA damage caused by radiation (γH2AX immunostaining); type: in vivo, mouse; details: 10 mg/kg one hour prior to 90 Gy lung irradiation; compared to non-treatment group (IR)
Description: The tissue of a mouse was fixed with 10% neutral formalin for one day, and a paraffin section was made. In order to remove paraffin around the tissue, the tissue was immersed in a xylene solution and 100%, 95%, 90%, and 70% ethanol solutions in sequential order. For the antigen activation of the tissue, the tissue was immersed in a 0.1 M citric acid solution (pH 6.0) and boiled for 30 minutes, and then reacted with 3% hydrogen peroxide for 15 minutes. The tissue was allowed to react with γH2AX (abcam), which was diluted in 1:200 ratio in a PBS solution (including phosphate based saline buffer and 0.1% triton x-100), at 4° C. for 16 hours. After washing the tissue with PBS, a secondary antibody conjugated with biotin was diluted in 1:200 ratio and reacted with the tissue at room temperature for 30 minutes. After reacting the tissue with ABC (Avidin biotin complex) at room temperature for 30 minutes and color-developing 3,3′-DAB (3,3′-diaminobenzidine), the tissue was counterstained with hematoxylin. Subsequently, the tissue was immersed in 50%, 70%, 90%, 95%, and 100% ethanol solutions and a xylene solution in sequential order, followed by dropping one drop of a mounting solution. Then, the tissue was covered with a cover slide and observed under a microscope (Carl Zeiss Vision). […]

`COc1cc2ncnc(Nc3ccc(F)c(Cl)c3)c2cc1NC(=O)/C=C/CN1CCCCC1` [Dacomitinib, (2E)-N-{4-[(3-chloro-4-fluorophenyl)amino]-7-methoxy-6-quinazolinyl}-4-(1-piperidinyl)-2-but enamide] was tested, and the “blue sites of collagen (protein associated with pulmonary fibrosis), trichrome staining” value [1] was “remarkably reduced”, the “thickness of the vascular wall” value [2] was “remarkably reduced” and the “infiltration of the inflammatory cells and the fibrotic matrix around blood vessels” value [3] was “remarkably reduced”. The “pathological characteristics such as infiltration of inflammatory cells, fibrous nodules, interstitial thickening” value [4] was “remarkably inhibited” and the “expression of γH2AX according to the DNA damage” value [5] was “remarkably reduced”.

— patent US20230165861A1, “USE FOR PROTECTING OR MITIGATING RADIATION DAMAGE, AND FOR PREVENTING OR TREATING PULMONARY FIBROSIS” (KOREA INSTITUTE OF RADIOLOGICAL & MEDICAL SCIENCES, priority 2017, published 2023)
